Our source for the EC50 values is patent US20260048047A1, “SMALL-MOLECULE ACTIVATORS OF MYCOBACTERIUM TUBERCULOSIS ADENYLYL CYCLASE” (priority 2022, published 2026).

The structures appear in SMILES notation.

This assay relates to M. tuberculosis. Briefly: Extracellular activity against M. tuberculosis in cholesterol media (Alamar Blue reduction assay). It counts as cell-based, Mycobacterium tuberculosis. The conditions noted are these: Mycobacterium tuberculosis, 240 h, 7H12-Cholesterol media, 10 days; read-out: Cholesterol broth: alamar blue--EC50. In general terms: Alamar Blue is a resazurin reagent that responds to reducing activity.

As to `Cc1nonc1CC(=O)N1CCC(c2nc(C3CC3)no2)CC1` [Compound 61, 1-(4-(3-cyclopropyl-1,2,4-oxadiazol-5-yl)piperidin-1-yl)-2-(4-methyl-1,2,5-oxadiazol-3-yl)ethan-1-one], the EC50 (usually the concentration needed to bring the measured effect to its halfway point) is more than 10 µM.

As to `Cc1nonc1CC(=O)N1CCC(n2nnc(C3CC3)n2)CC1` [Compound 62, 1-(4-(5-cyclopropyl-2H-tetrazol-2-yl)piperidin-1-yl)-2-(4-methyl-1,2,5-oxadiazol-3-yl)ethan-1-one], the EC50 was not below 10 µM.

Take `Cc1nonc1CC(=O)N1CCC(c2nc(C3CC4CCC3C4)no2)CC1` (centres unmarked) [Compound 64, 1-(4-(3-(bicyclo[2.2.1]heptan-2-yl)-1,2,4-oxadiazol-5-yl)piperidin-1-yl)-2-(4-methyl-1,2,5-oxadiazol-3-yl)ethan-1-one]: the EC50 amounted to 0.447 µM.

Take `Cc1nonc1CC(=O)N1CCC(c2noc(C3CC34CCC4)n2)CC1` (centres unmarked) [Compound 65, 2-(4-methyl-1,2,5-oxadiazol-3-yl)-1-(4-(5-(spiro[2.3]hexan-1-yl)-1,2,4-oxadiazol-3-yl)piperidin-1-yl)ethan-1-one]: the EC50 was determined as 15 µM.

Take `Cc1nonc1CC(=O)N1CCC(c2nc(C3CCC3)no2)CC1` [Compound 66, 1-(4-(3-cyclobutyl-1,2,4-oxadiazol-5-yl)piperidin-1-yl)-2-(4-methyl-1,2,5-oxadiazol-3-yl)ethan-1-one]: the EC50 is more than 25 µM.

As for `Cc1nonc1CC(=O)N1CCC(c2nc(C3CCC4(CC3)OCCO4)no2)CC1` [Compound 67, 1-(4-(3-(1,4-dioxaspiro[4.5]decan-8-yl)-1,2,4-oxadiazol-5-yl)piperidin-1-yl)-2-(4-methyl-1,2,5-oxadiazol-3-yl)ethan-1-one], the EC50 is more than 10 µM.

Turning to `Cc1nonc1CC(=O)N1CCC(c2nc(C3CCC4(CC3)CC4)no2)CC1` [Compound 68, 2-(4-methyl-1,2,5-oxadiazol-3-yl)-1-(4-(3-(spiro[2.5]octan-6-yl)-1,2,4-oxadiazol-5-yl)piperidin-1-yl)ethan-1-one], the EC50 was 1.86 µM.

For `Cc1nonc1CC(=O)N1CCC(c2noc(C3CCC4(CC3)CC4)n2)CC1` [Compound 69, 2-(4-methyl-1,2,5-oxadiazol-3-yl)-1-(4-(5-(spiro[2.5]octan-6-yl)-1,2,4-oxadiazol-3-yl)piperidin-1-yl)ethan-1-one], the EC50 was more than 25 µM.

`Cc1nonc1CC(=O)N1CCC(c2nc(C3CCCC3)no2)CC1` [Compound 70, 1-(4-(3-cyclopentyl-1,2,4-oxadiazol-5-yl)piperidin-1-yl)-2-(4-methyl-1,2,5-oxadiazol-3-yl)ethan-1-one]: the EC50 was 3.68 µM.

Regarding `Cc1nonc1CC(=O)N1CCC(n2nnc(C3CCCC3)n2)CC1` [Compound 71, 1-(4-(5-cyclopentyl-2H-tetrazol-2-yl)piperidin-1-yl)-2-(4-methyl-1,2,5-oxadiazol-3-yl)ethan-1-one], the EC50 was more than 25 µM.

With `Cc1nonc1CC(=O)N1CCC(c2nc(C3CCCC4CC43)no2)CC1` (centres unmarked) [Compound 72, 1-(4-(3-(bicyclo[4.1.0]heptan-2-yl)-1,2,4-oxadiazol-5-yl)piperidin-1-yl)-2-(4-methyl-1,2,5-oxadiazol-3-yl)ethan-1-one], the EC50 is more than 10 µM.

As to `Cc1nonc1CC(=O)N1CCC(c2nc(C3CCCCC3)no2)CC1` [Compound 73, 1-(4-(3-cyclohexyl-1,2,4-oxadiazol-5-yl)piperidin-1-yl)-2-(4-methyl-1,2,5-oxadiazol-3-yl)ethan-1-one], the EC50 was 0.674 µM.

Turning to `Cc1nonc1CC(=O)N1CCC(n2nnc(C3CCCCC3)n2)CC1` [Compound 74, 1-(4-(5-cyclohexyl-2H-tetrazol-2-yl)piperidin-1-yl)-2-(4-methyl-1,2,5-oxadiazol-3-yl)ethan-1-one], the EC50 was determined as 2.07 µM.

Take `Cc1nonc1CC(=O)N1CCC(O)(c2nc(C3CCCCC3)no2)CC1` [Compound 75, 1-(4-(3-cyclohexyl-1,2,4-oxadiazol-5-yl)-4-hydroxypiperidin-1-yl)-2-(4-methyl-1,2,5-oxadiazol-3-yl)ethan-1-one]: the EC50 was more than 10 µM.
